Experimental data taken from ChEMBL document CHEMBL3808296, “A combined in silico/in vitro approach unveils common molecular requirements for efficient BVDV RdRp binding of linear aromatic N-polycyclic systems” (Eur J Med Chem, 2016).

Key:
[1] = Cytotoxicity against mock-infected MDBK cells assessed as reduction in cell viability after 72 hrs by MTT assay; assay type: cell-based, Bos taurus; details: cattle
[2] = Antiviral activity against BVDV NADL infected in MDBK cells assessed as inhibition of virus induced cytopathogenicity after 3 to 4 days by MTT assay; assay type: functional, cell-based, Bovine viral diarrhea virus 1-NADL; details: Bovine viral diarrhea virus isolates and strains
[3] = Selectivity index, ratio of CC50 for MDBK cells to EC50 for […] NADL infected in MDBK cells
[4] = Inhibition of His tagged BVDV NS5B Cdelta24 RNA dependent RNA polymerase expressed in Escherichia coli Rosetta DE3 preincubated for 30 mins followed by addition of GTP measured after 120 mins by fluorescence analysis; parameters: species or system Bovine viral diarrhea virus 1
[5] = Inhibition of His tagged BVDV NS5B Cdelta24 RNA dependent RNA polymerase K263A mutant expressed in Escherichia coli Rosetta DE3 preincubated for 30 mins followed by addition of GTP measured after 120 mins by fluorescence analysis; parameters: species or system Bovine viral diarrhea virus 1
[6] = Cytotoxicity against mock-infected BHK21 cells assessed as reduction in cell viability after 72 hrs by MTT assay; assay type: cell-based, Mesocricetus auratus, BHK-21; details: hamster
[7] = system: Yellow fever virus; experiment: Antiviral activity against Yellow fever virus 17D infected in BHK21 cells assessed as inhibition of virus induced cytopathogenicity after 3 to 4 days by MTT assay; assay type: functional, cell-based; details: BHK-21
[8] = system: Mammalian orthoreovirus 1; experiment: Antiviral activity against Reovirus type-1 3651 infected in BHK21 cells assessed as inhibition of virus induced cytopathogenicity after 3 to 4 days by MTT assay; assay type: functional, cell-based; details: Mammalian orthoreovirus 1, 3651, BHK-21
[9] = Cytotoxicity against mock-infected african green monkey Vero 76 cells assessed as reduction in cell viability after 48 to 96 hrs by MTT assay; assay type: cell-based; details: chlorocebus sabaeus, mock-infected Vero 76 cells
[10] = system: Coxsackievirus B2; experiment: Antiviral activity against CVB-2 infected in Vero 76 cells after 3 days by crystal violet staining based plaque reduction assay; assay type: functional, organism-based; details: Enterovirus B, Vero 76, 72 h
[11] = system: Poliovirus 1; experiment: Antiviral activity against Human poliovirus 1 strain Sabin infected in Vero 76 cells after 2 days by crystal violet staining based plaque reduction assay; assay type: functional, organism-based; details: Enterovirus C, Vero 76, 48 h
[12] = system: Respiratory syncytial virus; experiment: Antiviral activity against Respiratory syncytial virus A2 infected in Vero 76 cells after 5 days by crystal violet staining based plaque reduction assay; assay type: functional, organism-based; details: human respiratory syncytial virus, A2, Vero 76, 120 h
[13] = system: Vesicular stomatitis virus; experiment: Antiviral activity against Vesicular stomatitis virus Indiana infected in Vero 76 cells after 2 days by crystal violet staining based plaque reduction assay; assay type: functional, organism-based; details: Vero 76, 48 h
[14] = system: Vaccinia virus; experiment: Antiviral activity against Vaccinia virus Elstree infected in Vero 76 cells after 3 days by crystal violet staining based plaque reduction assay; assay type: functional, organism-based; details: Orthopoxvirus vaccinia, Vero 76, 72 h
[15] = system: Bovine viral diarrhea virus 1; experiment: Antiviral activity against BVDV; assay type: functional, organism-based; details: Bovine viral diarrhea virus isolates and strains
[16] = Inhibition of BVDV RNA-dependent RNA polymerase; parameters: species or system Bovine viral diarrhea virus 1
[17] = Inhibition of HCV RNA-dependent RNA polymerase; parameters: species or system Hepacivirus hominis

Row | Structure (SMILES) | CC50 at 72 h [1] [µM] | EC50 [2] [µM] | Ratio CC50/EC50 [3] | CC50 at 72 h [6] [µM] | CC50 [9] [µM] | EC50 [10] [µM] | EC50 [14] [µM] | further results
1 | Clc1c2ncccc2cc2nc(-c3ccoc3)[nH]c12 | > 100 | 2 | >50 |  |  |  |  | 
2 | O=c1cnc2c(Cl)c3ncccc3cc2[nH]1 |  | > 100 |  |  |  |  |  | 
3 | N#Cc1ccc(-c2nc3cc4cccnc4c(Cl)c3[nH]2)cc1 | > 100 | 0.3 | >333.3 |  |  |  |  | IC50 [4]: 0.48 µM; IC50 [5]: 0.75 µM
4 | COc1nc2cc3cccnc3c(Cl)c2nc1-c1cccs1 |  | 1.3 |  |  |  |  |  | IC50 [4]: 0.64 µM; IC50 [5]: 0.96 µM
5 | COc1ccc(-c2nc3cc4cccnc4cc3[nH]2)c(OC)c1 | > 100 | 3.4 | >29.4 | 45 | 90 | 12 | 16 | EC50 [7]: > 45 µM; EC50 [8]: 38 µM; EC50 [11]: 16 µM; EC50 [12]: > 45 µM; EC50 [13]: > 90 µM
6 | Cn1c(=O)c(-c2cccs2)nc2c(Cl)c3ncccc3cc21 |  | 2 |  |  |  |  |  | 
7 | O=c1cnn([C@@H]2O[C@H](CO)[C@@H](O)[C@H]2O)c(=O)[nH]1 [6-AZAURIDINE] |  |  |  |  | > 12.5 |  |  | 
8 | NC(=O)c1ncn([C@@H]2O[C@H](CO)[C@@H](O)[C@H]2O)n1 [RIBAVIRIN] | 5 | 1.3 | 3.8 |  |  |  |  | 
9 | COc1ccc(-c2nc3cc(/C(C)=N/NC(N)=S)ccc3[nH]2)c(OC)c1 |  | 0.002 |  |  |  |  |  | 
10 | N#Cc1ccc(-c2nc3ccncc3[nH]2)cc1 |  | 9 |  |  |  |  |  | 
11 | N#Cc1ccc(/C=N/c2cc3cccnc3c(Cl)c2N)cc1 |  | 2 |  |  |  |  |  | 
12 | O=[N+]([O-])c1ccc(-c2nc3cc4cccnc4c(Cl)c3n2CC2CCCCC2)cc1 | 33 | 5 | >6.6 | 16 | 20 | > 20 | > 20 | EC50 [7]: > 13 µM; EC50 [8]: ≥ 16 µM; EC50 [11]: > 20 µM; EC50 [12]: > 20 µM; EC50 [13]: > 20 µM
13 | C#C[C@@]1(O)[C@H](O)[C@@H](CO)O[C@H]1n1ccc(N)nc1=O [2'-ETHYNYL-D-CYTIDINE] |  |  |  |  | > 100 | 27 |  | 
14 | CC(=O)c1ccc(-c2nc3ccncc3[nH]2)cc1 |  | 7 |  |  |  |  |  | IC50 [4]: 11 µM; IC50 [5]: 15 µM
15 | C[C@@]1(O)[C@H](O)[C@@H](CO)O[C@H]1n1cnc2c(=O)[nH]c(N)nc21 [2'-B-METHYL-GUANOSINE] | > 10 |  | >9.1 | > 10 |  |  |  | 
16 | O=c1[nH]c2cc3cccnc3c(Cl)c2nc1-c1cccs1 |  | 5 |  |  |  |  |  | 
17 | CC(=O)c1ccc(-c2nc3cccnc3[nH]2)cc1 |  | > 100 |  |  |  |  |  | 
18 | O=[N+]([O-])c1ccc(-c2nc3cc4cccnc4c(Cl)c3[nH]2)cc1 | > 100 |  |  |  |  |  |  | EC50 [15]: 1.2 µM; IC50 [16]: 0.06 µM; IC50 [17]: 8 µM

Row | Structure (SMILES) | CC50 at 72 h [1] [µM] | EC50 [2] [µM] | Ratio CC50/EC50 [3] | CC50 at 72 h [6] [µM] | CC50 [9] [µM] | EC50 [10] [µM] | EC50 [14] [µM] | further results
19 | COc1c(C)c2c(c(O)c1C/C=C(\C)CCC(=O)O)C(=O)OC2 [MYCOPHENOLIC ACID] |  |  |  |  | > 12.5 |  |  | 
20 | CC(=O)c1ccc(-c2nc3cc4cccnc4c(Cl)c3[nH]2)cc1 | > 100 | 5.8 | >17.2 | > 100 | > 100 | > 100 | > 100 | EC50 [7]: > 100 µM; EC50 [8]: 60 µM; EC50 [11]: > 100 µM; EC50 [12]: > 100 µM; EC50 [13]: > 100 µM
21 | FC(F)(F)c1ccc(-c2nc3cc4cccnc4cc3[nH]2)cc1 | > 100 | 7 | >14.2 | > 100 | > 100 | > 100 | > 100 | EC50 [7]: > 100 µM; EC50 [8]: 52 µM; EC50 [11]: 67 µM; EC50 [12]: > 100 µM; EC50 [13]: > 100 µM
22 | O=[N+]([O-])c1c2cccnc2c(Cl)c2[nH]nnc12 |  |  |  |  |  |  |  | IC50 [4]: 9 µM; IC50 [5]: 140 µM
23 | Fc1ccc(-c2nc3cc4cccnc4cc3[nH]2)c(F)c1 | > 100 | 6 | >16.7 | > 100 | > 100 | 35 | > 100 | EC50 [7]: > 100 µM; EC50 [8]: 10 µM; EC50 [11]: > 100 µM; EC50 [12]: > 58 µM; EC50 [13]: > 100 µM
24 | COc1ccc(-c2nc3cc4cccnc4c(Cl)c3n2CC2CCCCC2)cc1 | 20 | 5 | 4 |  |  |  |  | 
25 | NS(=O)(=O)c1ccc(-c2nc3cc4cccnc4c(Cl)c3[nH]2)cc1 | > 100 | > 100 |  | > 100 | > 100 | > 100 | > 100 | EC50 [7]: > 100 µM; EC50 [8]: > 100 µM; EC50 [11]: 21 µM; EC50 [12]: 18 µM; EC50 [13]: > 100 µM
26 | COc1ccc(-c2nc3cc4cccnc4c(Cl)c3[nH]2)c(OC)c1 | > 100 | 6.3 | >15.9 | > 100 | > 100 | 29 | 13 | EC50 [7]: 95 µM; EC50 [8]: > 100 µM; EC50 [11]: 41 µM; EC50 [12]: 10 µM; EC50 [13]: > 100 µM
27 | COc1nc2cc3cccnc3c(Cl)c2nc1C(C)C |  | > 100 |  |  |  |  |  | 
28 | CCn1c(=O)c(-c2ccccc2)nc2c(Cl)c3ncccc3cc21 |  | > 100 |  |  |  |  |  | 
29 | N#Cc1ccc(-c2nc3cc4cccnc4cc3[nH]2)cc1 | > 100 | 4 | >25 | 21 | 30 | > 30 | > 100 | EC50 [7]: > 21 µM; EC50 [8]: 7 µM; EC50 [11]: > 30 µM; EC50 [12]: > 16 µM; EC50 [13]: > 100 µM
30 | Nc1c(/N=C/c2ccc([N+](=O)[O-])cc2)cc2cccnc2c1Cl |  | 1.7 |  |  |  |  |  | IC50 [4]: 0.81 µM; IC50 [5]: 1 µM
31 | Nc1nc2c(ncn2COCCO)c(=O)[nH]1 [ACYCLOVIR] |  |  |  |  | > 100 |  | 1.5 | 
32 | CC(C)c1nc2c(Cl)c3ncccc3cc2[nH]c1=O |  | > 100 |  |  |  |  |  | 
33 | FC(F)(F)c1ccc(-c2nc3cc4cccnc4c(Cl)c3[nH]2)cc1 | > 100 | 2 | >50 | > 100 | > 100 | > 100 | > 100 | EC50 [7]: > 56 µM; EC50 [8]: > 100 µM; EC50 [11]: > 100 µM; EC50 [12]: > 100 µM; EC50 [13]: > 100 µM
34 | C[C@@]1(O)[C@H](O)[C@@H](CO)O[C@H]1n1ccc(N)nc1=O |  |  |  | > 100 |  |  |  | 
35 | CSc1ccc(-c2nc3cc4cccnc4c(Cl)c3[nH]2)cc1 | > 100 | 6.1 | >16.4 | > 100 | > 100 | > 100 | > 100 | EC50 [7]: > 100 µM; EC50 [8]: 100 µM; EC50 [11]: > 100 µM; EC50 [12]: > 100 µM; EC50 [13]: > 100 µM
